Structures can show the parent of a compound that is named as a salt.
Experiments:
[1] = target: T1, human dopamine transporter (Homo sapiens, UniProt Q01959); test: Inhibitory action on human dopamine transporter ([3H]-dopamine uptake in CHO cells); type: cell-based; conditions: CHO, compound 1 μM; relative to inhibitory activity of 100 μM Nomifensine as 100%; read-out: inhibitory rate (%)
T1 construct: expressed in transfected cells
In short: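 CHO-K1 cells stably expressing human dopamine transporter, exposed to compound at 10 μM or 1 μM in HEPES-buffered saline with 0.5% BSA. [3H]-dopamine uptake measured over 60 min by scintillation counting. Activity expressed relative to 100 μM nomifensine as 100%.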

SD female rats = test: Measurement of urethral resistance increasing effect (leak point pressure, oral administration); type: in vivo, rat
Protocol: The urethral resistance increasing effect in rat was measured by a modified method of Matsumoto et al. (WO2009/063992) as follows. That is, SD female rats (CLEA Japan, Inc.) were anesthetized with isoflurane (1.0%; Abbott), and the spinal cord was transected at Th8-9 to avoid the voiding reflex. After laparotomy, an intravesical pressure measurement catheter and a saline infusion catheter (PE-100; Clay Adams) were inserted into the bladder. Thereafter, the abdomen of the rat was closed with aronalpha A “Sankyo” (Daiichi Sankyo). The rat with an inserted catheter was placed in a Bollman cage (KN-326 Bollman cage TYPE III; Natsume). The intravesical pressure measurement catheter was connected to a computer via a pressure transducer (DX-100; Nihon Koden), an amplifier (RPM-6008M; Nihon Koden/303638; SAN-EI), and a multi-channel data analyzer (MP150/MP100; Biopack), and changes in the intravesical pressure were recorded on a hard disc at a frequency of 100 samples/sec. The saline infusion catheter was connected to a 50 mL syringe (Terumo) filled with saline colored with Evans Blue (Wako). The saline was infused into the bladder from the 50 mL syringe filled with saline at a rate of 0.1 mL/sec by using an infusion pump (Kds100; KD Scientific). When the saline leaked from the urethral orifice, infusion was discontinued, and the saline in the bladder was released. The maximum pressure observed during infusion of saline into the bladder and leakage thereof was taken as an LPP (Leak point pressure) value. The measurement was repeated until the LPP value was stabilized, and an average of continuous three stable LPP values was taken as the result. In addition, the measurement of drug effect was started 1 hr after the animal was placed in the Bollman cage. The LPP value (Pre value) was measured, a drug was orally administered, and the measurement of LPP value (Post value) was again started 15 min, 30 min, 1 hr, 2 hr and 4 hr after administration. The urethral resistance increasing effect by the drug was shown by the difference between the LPP value (Post value) and LPP value (Pre value). The drug was orally administered at 2.0 mL/kg, using 0.5% methylcellulose as a vehicle. For detection of a significant difference in the urethral resistance increasing effect by the drug as compared to the vehicle, the following method was used. For comparison of 3 or more groups, the Williams' test was used for a parametric test, and the Shirley-Williams' test was used for a non-parametric test. For comparison of 2 groups, the Student's t-test was used for a parametric test, and the […] was used for a non-parametric test.

T1 sequence (Q01959 whole entry): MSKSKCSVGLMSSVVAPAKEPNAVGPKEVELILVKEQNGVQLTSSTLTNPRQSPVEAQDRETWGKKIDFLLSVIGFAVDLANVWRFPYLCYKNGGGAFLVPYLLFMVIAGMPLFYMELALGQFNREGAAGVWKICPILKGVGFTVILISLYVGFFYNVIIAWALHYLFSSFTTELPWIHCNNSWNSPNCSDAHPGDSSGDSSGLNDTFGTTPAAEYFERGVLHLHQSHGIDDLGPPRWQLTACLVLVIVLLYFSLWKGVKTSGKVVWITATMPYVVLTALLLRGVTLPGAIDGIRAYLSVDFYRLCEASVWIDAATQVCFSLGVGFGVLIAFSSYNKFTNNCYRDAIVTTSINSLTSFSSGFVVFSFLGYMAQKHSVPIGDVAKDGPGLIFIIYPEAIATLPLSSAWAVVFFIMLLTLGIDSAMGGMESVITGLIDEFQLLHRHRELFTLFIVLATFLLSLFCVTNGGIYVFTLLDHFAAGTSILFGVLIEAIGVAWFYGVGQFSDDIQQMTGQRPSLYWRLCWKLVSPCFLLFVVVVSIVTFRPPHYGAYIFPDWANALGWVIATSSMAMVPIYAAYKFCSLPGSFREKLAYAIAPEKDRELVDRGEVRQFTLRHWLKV

| Compound | inhibition at 1 µM [1] | urethral resistance increasing effect (cmH2O) (SD female rats; 1.0 mg/kg oral, 15 min later) | urethral resistance increasing effect (cmH2O) (SD female rats; 1.0 mg/kg oral, 30 min later) | urethral resistance increasing effect (cmH2O) (SD female rats; 3.0 mg/kg oral, 15 min later) | urethral resistance increasing effect (cmH2O) (SD female rats; 3.0 mg/kg oral, 30 min later) | urethral resistance increasing effect (cmH2O) (SD female rats; 10.0 mg/kg oral, 15 min later) | urethral resistance increasing effect (cmH2O) (SD female rats; 10.0 mg/kg oral, 30 min later) | urethral resistance increasing effect (cmH2O) (SD female rats; 0.3 mg/kg oral, 15 min later) | urethral resistance increasing effect (cmH2O) (SD female rats; 0.3 mg/kg oral, 30 min later) | urethral resistance increasing effect (cmH2O) (SD female rats; 30.0 mg/kg oral, 15 min later) | urethral resistance increasing effect (cmH2O) (SD female rats; 30.0 mg/kg oral, 30 min later) |
| --- | --- | --- | --- | --- | --- | --- | --- | --- | --- | --- | --- |
| [2H]C([2H])([2H])OCC(=O)NC[C@@H]1CNCCO[C@H]1c1ccc(Cl)c(F)c1 [Example 39, N-{[(6S,7R)-7-(4-chloro-3-fluorophenyl)-1,4-oxazepan-6-yl]methyl}-2-[(^2H3)methyloxy]acetamide monohydrochloride] | 17% | 12.3 ± 2.2 cmH2O | 8.7 ± 2.6 cmH2O | 15.8 ± 1.7 cmH2O | 14.1 ± 1.5 cmH2O | 17.9 ± 1.8 cmH2O | 17.1 ± 2.3 cmH2O |  |  |  |  |
| O=c1[nH]c(-c2cccn(C[C@@H]3CNCCO[C@H]3c3ccc(Cl)c(F)c3)c2=O)no1 [Example 43, 1-{[(6S,7R)-7-(4-chloro-3-fluorophenyl)-1,4-oxazepan-6-yl]methyl}-3-(5-oxo-4,5-dihydro-1,2,4-oxadiazol-3-yl)pyridin-2(1H)-one monohydrochloride] | 15% |  |  | 8.4 ± 3.0 cmH2O | 11.8 ± 2.8 cmH2O | 13.9 ± 2.1 cmH2O | 14.8 ± 0.9 cmH2O |  |  |  |  |
| O=C(O)c1cccn(C[C@@H]2CNCCO[C@H]2c2ccc(Cl)c(F)c2)c1=O [Example 44, 1-{[(6S,7R)-7-(4-chloro-3-fluorophenyl)-1,4-oxazepan-6-yl]methyl}-2-oxo-1,2-dihydropyridine-3-carboxylic acid monohydrochloride] | 8% | 8.6 ± 2.6 cmH2O | 9.8 ± 2.6 cmH2O | 15.5 ± 3.7 cmH2O | 13.7 ± 3.3 cmH2O | 18.8 ± 1.5 cmH2O | 16.4 ± 1.5 cmH2O | 0.1 ± 2.5 cmH2O | 2.2 ± 2.6 cmH2O |  |  |
| OC[C@H](O)[C@@H]1OCCNC[C@H]1c1ccc(Cl)c(Cl)c1 [Example 45, (1S)-1-[(6R,7R)-6-(3,4-dichlorophenyl)-1,4-oxazepan-7-yl]ethane-1,2-diol monohydrochloride] | 52% | 10.0 ± 2.6 cmH2O | 13.4 ± 1.2 cmH2O | 16.9 ± 1.4 cmH2O | 17.5 ± 2.8 cmH2O | 21.0 ± 2.0 cmH2O | 22.1 ± 2.0 cmH2O | 6.4 ± 1.3 cmH2O | 9.3 ± 3.3 cmH2O |  |  |

Now from value to compound, other results behind:

| inhibition at 1 µM [1] | Compound | urethral resistance increasing effect (cmH2O) (SD female rats; 1.0 mg/kg oral, 15 min later) | urethral resistance increasing effect (cmH2O) (SD female rats; 1.0 mg/kg oral, 30 min later) | urethral resistance increasing effect (cmH2O) (SD female rats; 3.0 mg/kg oral, 15 min later) | urethral resistance increasing effect (cmH2O) (SD female rats; 3.0 mg/kg oral, 30 min later) | urethral resistance increasing effect (cmH2O) (SD female rats; 10.0 mg/kg oral, 15 min later) | urethral resistance increasing effect (cmH2O) (SD female rats; 10.0 mg/kg oral, 30 min later) | urethral resistance increasing effect (cmH2O) (SD female rats; 0.3 mg/kg oral, 15 min later) | urethral resistance increasing effect (cmH2O) (SD female rats; 0.3 mg/kg oral, 30 min later) | urethral resistance increasing effect (cmH2O) (SD female rats; 30.0 mg/kg oral, 15 min later) | urethral resistance increasing effect (cmH2O) (SD female rats; 30.0 mg/kg oral, 30 min later) |
| --- | --- | --- | --- | --- | --- | --- | --- | --- | --- | --- | --- |
| 9% | CCOCC(=O)NC[C@@H]1CNCCO[C@H]1c1ccc(Cl)c(F)c1 [Example 40, N-{[(6S,7R)-7-(4-chloro-3-fluorophenyl)-1,4-oxazepan-6-yl]methyl}-2-ethoxyacetamide monohydrochloride] | 8.5 ± 1.9 cmH2O | 8.6 ± 2.6 cmH2O | 11.4 ± 1.9 cmH2O | 12.8 ± 1.6 cmH2O | 16.6 ± 2.0 cmH2O | 17.2 ± 2.2 cmH2O |  |  |  |  |
| 11% | CC(C)OCC(=O)NC[C@@H]1CNCCO[C@H]1c1ccc(Cl)c(F)c1 [Example 41, N-{[(6S,7R)-7-(4-chloro-3-fluorophenyl)-1,4-oxazepan-6-yl]methyl}-2-(1-methylethoxy)acetamide monohydrochloride] |  |  | 9.8 ± 3.8 cmH2O | 9.6 ± 2.3 cmH2O | 17.8 ± 1.6 cmH2O | 16.1 ± 1.5 cmH2O |  |  |  |  |
| 71% | O=c1[nH]c(-c2cccnc2O[C@@H]2CNCCO[C@H]2c2ccc(Cl)c(F)c2)no1 [Example 556, 3-(2-{[(6R,7S)-7-(4-chloro-3-fluorophenyl)-1,4-oxazepan-6-yl]oxy}pyridin-3-yl)-1,2,4-oxadiazol-5(4H)-one monohydrochloride] |  |  | 6.0 ± 2.0 cmH2O | 5.0 ± 2.9 cmH2O | 13.4 ± 1.7 cmH2O | 10.6 ± 1.8 cmH2O |  |  | 17.8 ± 3.4 cmH2O | 17.5 ± 2.3 cmH2O |

Source: patent publication US20130267494A1, “1,4-OXAZEPANE DERIVATIVES” (priority 2010, published 2013)
